How the values were obtained:
[1] = Plasma JT002 concentrations in mice after a single oral dose; format: in vivo, mouse; settings: single oral dose 25 mg/kg
Procedure: In vivo pharmacodynamics (PD) were evaluated in mice for determination of target engagement as this species is routinely used for assessment of preclinical efficacy. Treatment of fresh, whole blood with LPS plus ATP results in the NLRP3-dependent release of IL-1β, thus providing a robust method for tracking target engagement of NLRP3 inflammasome inhibitors in the circulation after oral dose administration[36],[47]. In vivo target engagement using ex vivo stimulation of blood was evaluated in mice at various times after oral dosing of JT002. For each time point tested, one group of mice received a single oral dose of 25 mg/kg JT002 (n = 8/group) and another group received the vehicle control (n = 8/group). At the time of harvest, blood was collected from each animal and an aliquot removed and processed to plasma for determination of JT002 concentrations. The remaining blood was stimulated ex vivo with LPS plus ATP followed by analysis of IL-1β concentrations (Fig. 3A). […] Consistent with these findings, plasma concentrations of JT002 decreased over time, with mean concentrations of ≥ 4.0 µM through 8 h and a mean concentration of 6 nM at the 24-h sampling (Fig. 3C,D). […]

[2] = system: autocatalytic cleavage of pro-caspase-1 (p45) into the p10 subunit; assay: Western blot for caspase-1 p10 in LPS + nigericin stimulated mouse BMDM lysates and supernatants; format: cell-based; settings: LPS + nigericin treated mBMDMs, compound 10 µM
Procedure: BMDMs were activated with LPS and nigericin as described above and were lysed in situ with 50 μL of 4× NuPAGE LDS sample buffer (Fisher Scientific, Hampton, NH) + 5% β-mercaptoethanol and prepared for polyacrylamide gel electrophoresis. Samples were run on NuPAGE Bis–Tris gels (Fisher Scientific, Hampton, NH) and transferred to polyvinylidene difluoride (PVDF) membranes (Fisher Scientific, Hampton, NH) using the iBlot® 2 Dry Blotting System (Fisher Scientific, Hampton, NH). Washed PVDF membranes were blocked and then probed with the following primary antibodies: procaspase-1 + p10 + p12 [EPR16883] (Abcam, Cambridge, MA), β-actin (AC-74, Sigma-Aldrich, St. Louis, MO) and NLRP3 [Cryo-2] (AdipoGen Life Sciences, San Diego, CA). Bound primary antibodies were detected using HRP-labeled secondary antibodies and membranes were imaged with an Azure c300 imager (Azure Biosystems, Dublin, CA). Bands were quantitated using ImageJ software.

CO[C@@H]1COc2c(S(=O)(=O)NC(=O)Nc3c4c(cc5c3CCC5)CCC4)cnn2C1 [JT002]
concentration at 24 h ([1]; male, C57BL/6, mouse, plasma, 24-h sampling): 6 nM | concentration at 24 h ([1]; through 8 h): ≥ 4000 nM | formation of the caspase-1 p10 subunit (autocatalytic cleavage of pro-caspase-1) [2]: blocked formation of the p10 subunit and its release from the cell
